Measurements reported in publication PMC4363860 (Scientific Reports, 2015).
Like-named read-outs stand apart in the source and are kept apart here.

What was measured:
[1] = Pharmacokinetic study, plasma concentrations by LC-MS; format: in vivo; details: mice, oral 20 mg/Kg, N = 2 mice/time point, mean ± s.d.
Protocol: Drugs blood concentrations were determined by LC-MS using calibrated curves essentially as described[5][9]. […] At specified time intervals mice were euthanized (CO2 asphyxiation) and blood samples collected from vena cava (N = 2 mice/time point). For analysis, samples were centrifuged (2 min, 6000 × g), 200 μl plasma were mixed with 0.5 ml extraction buffer (50% acetonitrile (ACN): 50% methanol) incubated (30 min on plate shaker at 200 rpm, RT), centrifuged (2 min, 14000 × g) and 300 μl supernatant diluted twofold in DDW and analyzed by LC-MS (5 μl injected to Waters Xevo G2 Tof/ACQUITY UPLC H-Class system). Flow rate, 0.5 ml/min. Run time, 5 min. Mobile phase, ACN/DDW combination containing 0.1% formic acid using an ACQUITY UPLC BEH column (C18 1.7 μm) and eluted with a 0–90% ACN gradient. Quantification was by MS detection in positive ionization mode using an identical procedure that was performed in mouse whole blood in order to establish standard calibration curves.

[2] = tested on: E. coli 16327; experiment: Chemo-sensitization (Suppl. Table S1)
[3] = tested on: E. coli 35218; experiment: Chemo-sensitization (Suppl. Table S1); details: for MIC: Escherichia coli, 35218, read-out: MIC of rifampin in presence of C10KKc12K, E. coli 35218
[4] = tested on: Klebsiella; experiment: MIC (Suppl. Figs S2, S3); format: cell-based
[5] = tested on: E. coli; experiment: MIC and reciprocal sensitization (Fig. 2a,b; Suppl. Figs S2, S3); format: cell-based, Escherichia coli
[6] = tested on: K. pneumoniae; experiment: Efficacy, peritonitis-sepsis model in neutropenic mice; format: in vivo, Klebsiella pneumoniae; details: IP K. pneumoniae 3 × 10^7 CFU, rifampin oral 0.45 mg/mouse or OAK SC 0.3 mg/mouse, 2 experiments, 10 mice/group, vehicle 20 ± 10%
Protocol: Animal studies were performed using male ICR mice (weight range, 23 ± 2 g) obtained from Harlan Laboratories (Rehovot, Israel). Procedures, care and handling of animals were reviewed and approved by Technion Animal Care and Use Committee.
Mice were rendered neutropenic by intraperitoneal (IP) injection of cyclophosphamide (150 and 100 mg/Kg on days 0 and 3, respectively). The procedure was confirmed to result in severe neutropenia by day 4, at which time infection was induced. The peritonitis-sepsis model was used whereby infection was obtained after IP injection of a logarithmic-phase culture of K. pneumoniae (3 × 10^7 CFU/mice in 0.3 ml PBS). […] Mice survival was monitored for up to 7 days post-treatment. Survival data were obtained from 2 independent experiments (n = 10 mice/group/experiment). Statistical analysis was performed using a paired t test were α equals 0.05.

[7] = tested on: E. coli 14182; experiment: Chemo-sensitization (Suppl. Table S1)
[8] = tested on: E. coli 14384; experiment: Chemo-sensitization (Suppl. Table S1); details: for MIC: Escherichia coli, 14384, read-out: MIC of rifampin in presence of C10KKc12K, E. coli 14384
[9] = tested on: K. pneumoniae 1287; experiment: Chemo-sensitization (Suppl. Table S1)
[10] = tested on: S. Typhimurium 14028; experiment: Chemo-sensitization (Suppl. Table S1); details: for MIC: Salmonella enterica, TYPHIMURIUM
[11] = tested on: S. stanley 7308; experiment: Chemo-sensitization (Suppl. Table S1); format: cell-based, Salmonella; details: for MIC: Salmonella enterica, 7308, read-out: MIC of rifampin in presence of C10KKc12K, S. stanley 7308
[12] = tested on: E. coli 16329; experiment: Chemo-sensitization (Suppl. Table S1)

With `CO[C@H]1/C=C/O[C@@]2(C)Oc3c(C)c(O)c4c(O)c(c(/C=N/N5CCN(C)CC5)c(O)c4c3C2=O)NC(=O)/C(C)=C\C=C\[C@H](C)[C@H](O)[C@@H](C)[C@@H](O)[C@@H](C)[C@H](OC(C)=O)[C@@H]1C` [rifampin] the “plasma concentration reached after oral administration” value [1] was 13260 ± 2250 ng/mL, the “SF, sensitization factor, rifampin with C10KKc12K” value (from here on “SF … with C10KKc12K”) ([2]; E. coli 16327) was 2000 and the “SF, sensitization factor, rifampin with C12(ω7)KKc12K” value (“SF … with C12(ω7)KKc12K” below) ([2]; E. coli 16327) was > 3200. For the same molecule, the MIC ([2]; Escherichia coli, 16327, read-out: MIC of rifampin in presence of C10KKc12K, E. coli 16327, OAK 0 µg/ml) was 16 µg/mL, the MIC ([2]; Escherichia coli, 16327, read-out: MIC of rifampin in presence of C10KKc12K, E. coli 16327, OAK 1.25 µg/ml) was 0.5 µg/mL and the MIC ([2]; Escherichia coli, 16327, read-out: MIC of rifampin in presence of C10KKc12K, E. coli 16327, OAK 2.5 µg/ml) was 0.031 µg/mL. The MIC ([2]; Escherichia coli, 16327, read-out: MIC of rifampin in presence of C10KKc12K, E. coli 16327, OAK 5 µg/ml) was 0.008 µg/mL, the MIC ([2]; Escherichia coli, 16327, read-out: MIC of rifampin in presence of C12(ω7)KKc12K, E. coli 16327, OAK 0 µg/ml) was 16 to 32 µg/mL and the MIC ([2]; Escherichia coli, 16327, read-out: MIC of rifampin in presence of C12(ω7)KKc12K, E. coli 16327, OAK 1.25 µg/ml) was 8 µg/mL. The MIC ([2]; Escherichia coli, 16327, read-out: MIC of rifampin in presence of C12(ω7)KKc12K, E. coli 16327, OAK 2.5 µg/ml) was < 0.01 µg/mL, the MIC ([2]; Escherichia coli, 16327, read-out: MIC of rifampin in presence of C12(ω7)KKc12K, E. coli 16327, OAK 5 µg/ml) was < 0.01 µg/mL and the “SF … with C10KKc12K” value ([3]; E. coli 35218) was 258. For the same molecule, the MIC ([3]; OAK 0 µg/ml) was 8 µg/mL, the MIC ([3]; OAK 1.25 µg/ml) was 0.5 µg/mL and the MIC ([3]; OAK 5 µg/ml) was 0.031 µg/mL. For the same molecule, the “standalone antibiotic MIC” value [4] was 32 µg/mL, the “standalone antibiotic MIC” value [5] was 16 µg/mL and the “survivors at day 7, single dose monotherapy” value [6] was 10%. For the same molecule, the “SF … with C10KKc12K” value ([7]; E. coli 14182) was 516, the “SF … with C12(ω7)KKc12K” value ([7]; E. coli 14182) was > 800 and the MIC ([7]; Escherichia coli, 14182, read-out: MIC of rifampin in presence of C10KKc12K, E. coli 14182, OAK 0 µg/ml) was 16 µg/mL. It also gave an MIC ([7]; Escherichia coli, 14182, read-out: MIC of rifampin in presence of C10KKc12K, E. coli 14182, OAK 1.25 µg/ml) of 4 µg/mL, an MIC ([7]; Escherichia coli, 14182, read-out: MIC of rifampin in presence of C10KKc12K, E. coli 14182, OAK 2.5 µg/ml) of 0.125 µg/mL and an MIC ([7]; Escherichia coli, 14182, read-out: MIC of rifampin in presence of C10KKc12K, E. coli 14182, OAK 5 µg/ml) of 0.031 µg/mL. It also gave an MIC ([7]; Escherichia coli, 14182, read-out: MIC of rifampin in presence of C12(ω7)KKc12K, E. coli 14182, OAK 0 µg/ml) of 8 µg/mL, an MIC ([7]; Escherichia coli, 14182, read-out: MIC of rifampin in presence of C12(ω7)KKc12K, E. coli 14182, OAK 1.25 µg/ml) of 8 µg/mL and an MIC ([7]; Escherichia coli, 14182, read-out: MIC of rifampin in presence of C12(ω7)KKc12K, E. coli 14182, OAK 2.5 µg/ml) of 0.031 µg/mL. For the same molecule, the MIC ([7]; Escherichia coli, 14182, read-out: MIC of rifampin in presence of C12(ω7)KKc12K, E. coli 14182, OAK 5 µg/ml) was < 0.01 µg/mL, the “SF … with C10KKc12K” value ([8]; E. coli 14384) was 258 and the MIC ([8]; OAK 0 µg/ml) was 8 µg/mL. It also gave an MIC ([8]; OAK 1.25 µg/ml) of 0.5 µg/mL, an MIC ([8]; OAK 2.5 µg/ml) of 0.125 µg/mL and an MIC ([8]; OAK 5 µg/ml) of 0.031 µg/mL. The “SF … with C12(ω7)KKc12K” value ([9]; K. pneumoniae 1287) was 5333, the MIC ([9]; Klebsiella pneumoniae, 1287, read-out: MIC of rifampin in presence of C10KKc12K, K. pneumoniae 1287, OAK 1.25 µg/ml) was 8 µg/mL and the MIC ([9]; Klebsiella pneumoniae, 1287, read-out: MIC of rifampin in presence of C10KKc12K, K. pneumoniae 1287, OAK 2.5 µg/ml) was 0.031 µg/mL. The MIC ([9]; Klebsiella pneumoniae, 1287, read-out: MIC of rifampin in presence of C12(ω7)KKc12K, K. pneumoniae 1287, OAK 1.25 µg/ml) was 4 µg/mL, the MIC ([9]; Klebsiella pneumoniae, 1287, read-out: MIC of rifampin in presence of C12(ω7)KKc12K, K. pneumoniae 1287, OAK 2.5 µg/ml) was 0.1 µg/mL and the MIC ([9]; Klebsiella pneumoniae, 1287, read-out: MIC of rifampin in presence of C12(ω7)KKc12K, K. pneumoniae 1287, OAK 5 µg/ml) was 0.006 µg/mL. For the same molecule, the “SF … with C10KKc12K” value ([10]; S. Typhimurium 14028) was 2000, the “SF … with C12(ω7)KKc12K” value ([10]; S. Typhimurium 14028) was 2667 and the MIC ([10]; read-out: MIC of rifampin in presence of C10KKc12K, S. Typhimurium 14028, OAK 0 µg/ml) was 16 µg/mL. For the same molecule, the MIC ([10]; read-out: MIC of rifampin in presence of C10KKc12K, S. Typhimurium 14028, OAK 1.25 µg/ml) was 8 µg/mL, the MIC ([10]; read-out: MIC of rifampin in presence of C10KKc12K, S. Typhimurium 14028, OAK 5 µg/ml) was 0.008 µg/mL and the MIC ([10]; read-out: MIC of rifampin in presence of C12(ω7)KKc12K, S. Typhimurium 14028, OAK 0 µg/ml) was 16 µg/mL. For the same molecule, the MIC ([10]; read-out: MIC of rifampin in presence of C12(ω7)KKc12K, S. Typhimurium 14028, OAK 1.25 µg/ml) was 8 µg/mL, the MIC ([10]; read-out: MIC of rifampin in presence of C12(ω7)KKc12K, S. Typhimurium 14028, OAK 2.5 µg/ml) was 0.016 µg/mL and the MIC ([10]; read-out: MIC of rifampin in presence of C12(ω7)KKc12K, S. Typhimurium 14028, OAK 5 µg/ml) was 0.006 µg/mL. The “SF … with C10KKc12K” value ([11]; S. stanley 7308) was 2000, the MIC ([11]; OAK 0 µg/ml) was 16 µg/mL and the MIC ([11]; OAK 1.25 µg/ml) was 16 µg/mL. For the same molecule, the MIC ([11]; OAK 2.5 µg/ml) was 0.125 µg/mL, the MIC ([11]; OAK 5 µg/ml) was 0.008 µg/mL and the “SF … with C10KKc12K” value ([12]; E. coli 16329) was 2000. The “SF … with C12(ω7)KKc12K” value ([12]; E. coli 16329) was 2000, the MIC ([12]; Escherichia coli, 16329, read-out: MIC of rifampin in presence of C10KKc12K, E. coli 16329, OAK 0 µg/ml) was 16 µg/mL and the MIC ([12]; Escherichia coli, 16329, read-out: MIC of rifampin in presence of C10KKc12K, E. coli 16329, OAK 1.25 µg/ml) was 0.5 µg/mL. It also gave an MIC ([12]; Escherichia coli, 16329, read-out: MIC of rifampin in presence of C10KKc12K, E. coli 16329, OAK 5 µg/ml) of 0.008 µg/mL, an MIC ([12]; Escherichia coli, 16329, read-out: MIC of rifampin in presence of C12(ω7)KKc12K, E. coli 16329, OAK 0 µg/ml) of 16 µg/mL and an MIC ([12]; Escherichia coli, 16329, read-out: MIC of rifampin in presence of C12(ω7)KKc12K, E. coli 16329, OAK 1.25 µg/ml) of 8 µg/mL. The MIC ([12]; Escherichia coli, 16329, read-out: MIC of rifampin in presence of C12(ω7)KKc12K, E. coli 16329, OAK 2.5 µg/ml) was 0.031 µg/mL and the MIC ([12]; Escherichia coli, 16329, read-out: MIC of rifampin in presence of C12(ω7)KKc12K, E. coli 16329, OAK 5 µg/ml) was 0.008 µg/mL.
